In PubChem BioAssay (NCI):
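Grown in 96-well plates, cells were treated for 48 hours with each compound at five concentrations. Insufficient inhibition: endpoint recorded as highest concentration tested. TGI marks complete inhibition of growth.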

Experiments:
Test in all cases: NCI-60 cell line screen, 48 h
DLD-1 colon = system: DLD-1 colon
SF-539 CNS = system: SF-539 CNS
XF 498 CNS = system: XF 498 CNS
NCI-H460 lung = system: NCI-H460 lung
HOP-62 NSCLC = system: HOP-62 NSCLC
EKVX NSCLC = system: EKVX NSCLC
NCI-H522 lung = system: NCI-H522 lung
MOLT-4 leukemia = system: MOLT-4 leukemia
HOP-92 NSCLC = system: HOP-92 NSCLC
MALME-3M melanoma = system: MALME-3M melanoma
SK-MEL-28 melanoma = system: SK-MEL-28 melanoma
DMS 114 small cell lung = system: DMS 114 small cell lung
SF-295 CNS = system: SF-295 CNS
HCT-15 colon = system: HCT-15 colon
RXF 393 renal = system: RXF 393 renal
U251 CNS = system: U251 CNS
DMS 273 small cell lung = system: DMS 273 small cell lung
SW-620 colon = system: SW-620 colon
OVCAR-4 ovarian = system: OVCAR-4 ovarian
M14 melanoma = system: M14 melanoma
OVCAR-3 ovarian = system: OVCAR-3 ovarian
TK-10 renal = system: TK-10 renal
NCI-H226 lung = system: NCI-H226 lung
HOP-18 NSCLC = system: HOP-18 NSCLC
HT29 colon = system: HT29 colon
UACC-62 melanoma = system: UACC-62 melanoma
786-0 renal = system: 786-0 renal
A549 NSCLC = system: A549 NSCLC
OVCAR-5 ovarian = system: OVCAR-5 ovarian
K-562 leukemia = system: K-562 leukemia
OVCAR-8 ovarian = system: OVCAR-8 ovarian
KM12 colon = system: KM12 colon
HL-60(TB) leukemia = system: HL-60(TB) leukemia
SNB-19 CNS = system: SNB-19 CNS
NCI-H23 lung = system: NCI-H23 lung
SN12C renal = system: SN12C renal
UO-31 renal = system: UO-31 renal
SNB-78 CNS = system: SNB-78 CNS
SK-OV-3 ovarian = system: SK-OV-3 ovarian
CCRF-CEM leukemia = system: CCRF-CEM leukemia
HCT-116 colon = system: HCT-116 colon
ACHN renal = system: ACHN renal
LXFL 529 NSCLC = system: LXFL 529 NSCLC
KM20L2 colon = system: KM20L2 colon
LOX IMVI melanoma = system: LOX IMVI melanoma
UACC-257 melanoma = system: UACC-257 melanoma
SNB-75 CNS = system: SNB-75 CNS
SF-268 CNS = system: SF-268 CNS
SK-MEL-5 melanoma = system: SK-MEL-5 melanoma
COLO 205 colon = system: COLO 205 colon
M19-MEL melanoma = system: M19-MEL melanoma
SR leukemia = system: SR leukemia
HCC-2998 colon = system: HCC-2998 colon
SK-MEL-2 melanoma = system: SK-MEL-2 melanoma
RPMI-8226 leukemia = system: RPMI-8226 leukemia
IGROV1 ovarian = system: IGROV1 ovarian
RXF-631 renal = system: RXF-631 renal
CAKI-1 renal = system: CAKI-1 renal

CCCCCCCCCCCC(=O)CC(=O)c1c(O)cccc1O
TGI (DLD-1 colon): 32.4 µM | TGI (SF-539 CNS): 35.5 µM | TGI (XF 498 CNS): 33.3 µM | TGI (NCI-H460 lung): 35.7 µM | TGI (HOP-62 NSCLC): 48.9 µM | TGI (EKVX NSCLC): 33.4 µM | TGI (NCI-H522 lung): 65.3 µM | TGI (MOLT-4 leukemia): 41.9 µM | TGI (HOP-92 NSCLC): 39 µM | TGI (MALME-3M melanoma): 32.6 µM | TGI (SK-MEL-28 melanoma): 44.1 µM | TGI (DMS 114 small cell lung): 34.6 µM | TGI (SF-295 CNS): 34.8 µM | TGI (HCT-15 colon): 47.4 µM | TGI (RXF 393 renal): 34.5 µM | TGI (U251 CNS): 31.5 µM | TGI (DMS 273 small cell lung): 32.6 µM | TGI (SW-620 colon): 31 µM | TGI (OVCAR-4 ovarian): 34.1 µM | TGI (M14 melanoma): 32.9 µM | TGI (OVCAR-3 ovarian): 34.4 µM | TGI (TK-10 renal): 57.5 µM | TGI (NCI-H226 lung): 32.1 µM | TGI (HOP-18 NSCLC): 36.7 µM | TGI (HT29 colon): 33.7 µM | TGI (UACC-62 melanoma): 90.1 µM | TGI (786-0 renal): 39.4 µM | TGI (A549 NSCLC): 33.1 µM | TGI (OVCAR-5 ovarian): 36.4 µM | TGI (K-562 leukemia): 76.4 µM | TGI (OVCAR-8 ovarian): 30.6 µM | TGI (KM12 colon): 31.2 µM | TGI (HL-60(TB) leukemia): > 100 µM | TGI (SNB-19 CNS): 36.8 µM | TGI (NCI-H23 lung): 41.9 µM | TGI (SN12C renal): 33.6 µM | TGI (UO-31 renal): 29.3 µM | TGI (SNB-78 CNS): 41 µM | TGI (SK-OV-3 ovarian): 95.5 µM | TGI (CCRF-CEM leukemia): > 100 µM | TGI (HCT-116 colon): 31.1 µM | TGI (ACHN renal): 35.2 µM | TGI (LXFL 529 NSCLC): 32.2 µM | TGI (KM20L2 colon): 43.8 µM | TGI (LOX IMVI melanoma): 32 µM | TGI (UACC-257 melanoma): 34.5 µM | TGI (SNB-75 CNS): 36.5 µM | TGI (SF-268 CNS): 33 µM | TGI (SK-MEL-5 melanoma): 35.6 µM | TGI (COLO 205 colon): 31.2 µM | TGI (M19-MEL melanoma): 34.2 µM | TGI (SR leukemia): 45.8 µM | TGI (HCC-2998 colon): 82.9 µM | TGI (SK-MEL-2 melanoma): 31 µM | TGI (RPMI-8226 leukemia): 43.9 µM | TGI (IGROV1 ovarian): 36.4 µM

CC1(C)CC(/C=C2/OC(=O)c3ccccc32)=C(C#N)C(=O)O1
TGI (DLD-1 colon): > 100 µM | TGI (SF-539 CNS): > 100 µM | TGI (XF 498 CNS): > 100 µM | TGI (NCI-H460 lung): > 100 µM | TGI (HOP-62 NSCLC): > 100 µM | TGI (EKVX NSCLC): > 100 µM | TGI (NCI-H522 lung): > 100 µM | TGI (MOLT-4 leukemia): > 100 µM | TGI (MALME-3M melanoma): > 100 µM | TGI (SK-MEL-28 melanoma): > 100 µM | TGI (SF-295 CNS): > 100 µM | TGI (HCT-15 colon): > 100 µM | TGI (U251 CNS): > 100 µM | TGI (DMS 273 small cell lung): > 100 µM | TGI (SW-620 colon): > 100 µM | TGI (RXF-631 renal): > 100 µM | TGI (OVCAR-4 ovarian): > 100 µM | TGI (M14 melanoma): > 100 µM | TGI (OVCAR-3 ovarian): > 100 µM | TGI (NCI-H226 lung): > 100 µM | TGI (HT29 colon): > 100 µM | TGI (UACC-62 melanoma): > 100 µM | TGI (786-0 renal): > 100 µM | TGI (A549 NSCLC): > 100 µM | TGI (OVCAR-5 ovarian): > 100 µM | TGI (K-562 leukemia): > 100 µM | TGI (OVCAR-8 ovarian): > 100 µM | TGI (KM12 colon): > 100 µM | TGI (SNB-19 CNS): > 100 µM | TGI (NCI-H23 lung): > 100 µM | TGI (SN12C renal): > 100 µM | TGI (UO-31 renal): > 100 µM | TGI (SNB-78 CNS): > 100 µM | TGI (SK-OV-3 ovarian): > 100 µM | TGI (CCRF-CEM leukemia): > 100 µM | TGI (HCT-116 colon): > 100 µM | TGI (ACHN renal): > 100 µM | TGI (LXFL 529 NSCLC): > 100 µM | TGI (KM20L2 colon): > 100 µM | TGI (LOX IMVI melanoma): > 100 µM | TGI (UACC-257 melanoma): > 100 µM | TGI (SNB-75 CNS): > 100 µM | TGI (SF-268 CNS): > 100 µM | TGI (SK-MEL-5 melanoma): > 100 µM | TGI (COLO 205 colon): > 100 µM | TGI (M19-MEL melanoma): > 100 µM | TGI (SR leukemia): > 100 µM | TGI (HCC-2998 colon): > 100 µM | TGI (SK-MEL-2 melanoma): > 100 µM | TGI (CAKI-1 renal): > 100 µM | TGI (RPMI-8226 leukemia): > 100 µM | TGI (IGROV1 ovarian): > 100 µM
